Literature values in patent US20260216065A1, “PHARMACEUTICAL COMPOSITIONS FOR NASAL DELIVERY” (Therakind Limited, priority 2023, published 2026).

Details: room temperature (25° C.)

Cc1nccn1CC1CCc2c(c3ccccc3n2C)C1=O (racemic) [ondansetron, (RS)-9-Methyl-3-[(2-methyl-1H-imidazol-1-yl)methyl]-2,3-dihydro-1H-carbazol-4(9H)-one]
time for which nasal spray solutions are stable: 48 h
